Read-outs that look alike come from different tables or passages of the source.
Columns and labels:
Assay type in all cases: in vitro ADME
CYP2D6 = CYP2D6 (Homo sapiens, UniProt P10635); assay: IC50-shift experiment, CYP2D6 in HLMs; design: 0.20 mg/mL HLMs or 0.20 mg/mL RLMs; from tissue; host or cells: human liver microsomes; settings: for IC50: dextromethorphan 10 μM
Procedure: (§1) The components of the incubation system were as follows: 0.20 mg/mL HLMs or 0.20 mg/mL RLMs, 0.1 M Tris-HCl, vortioxetine, and the probe substrates of each enzyme. In the study of Km’s (Michaelis–Menten constant) experiment, midazolam (1, 2, 5, 10, 20, 50 and 100 μM in HLMs and RLMs) corresponded to CYP3A4/3A; bupropion (10, 20, 50, 100, 200, 500, 1,000 and 2000 μM in HLMs; 1, 2, 5, 10, 20, 50, 100 and 200 μM in RLMs) corresponded to CYP2B6/2B; amodiaquine (5, 10, 20, 50, 100 and 200 μM in HLMs; 10, 20, 50, 100, 200, 500 μM in RLMs) corresponded to CYP2C8/CYP2C-1; losartan (1, 2, 5, 10, 20, 50, 100, 200 μM in HLMs; 10, 20, 50, 100, 200, 500 and 1,000 μM in RLMs) corresponded to CYP2C9/CYP2C-2; mephenytoin (20, 50, 100, 200, 500 and 1,000 μM in HLMs; 5, 10, 20, 50, 100, 200, 500 and 1,000 μM in RLMs) corresponded to CYP2C19/CYP2C-3; and dextromethorphan (1, 2, 5, 10, 20, 50 and 100 μM in HLMs and RLMs) corresponded to CYP2D6/CYP2D. After 5.0 min of preincubation in the shaking water bath, the reaction was started with the addition of 1.0 mM NADPH. The incubated temperature at 37°C for 30 min. After the incubation, the enzyme reaction was stopped by cooling at −80°C, and 200 μL of acetonitrile and 20 μL of internal standard diazepam (200 ng/mL) were added for protein precipitation. […]
(§2) IC50-shift was used to investigate whether the drug produced time-dependent inhibition (TDI) of the enzyme. […] During the experiment, the individual substrates midazolam (4 μM), bupropion (40 μM), amodiaquine (3 μM), losartan (8 μM), mephenytoin (90 μM), and dextromethorphan (10 μM) were determined with vortioxetine IC50-shift in HLMs. […]
(§3) All experiments results were detected by UPLC-MS/MS, which equipped with a Waters Acquity UPLC system (Milford, MA, United States) and a Waters Xevo TQ-S triple quadrupole tandem mass spectrometer with an electrospray ionization source (Milford, MA, United States). […]
(§4) IC50 values and enzyme kinetic parameters were calculated by Graphpad Prism 6.0 (GraphPad software Inc., CA, United States). […] Data for each experiment were expressed as mean ± SD (n = 3).

CYP3A4 = CYP3A4 (Homo sapiens, UniProt P08684); assay: IC50 of vortioxetine on CYP3A4 (midazolam) in HLMs; design: 0.20 mg/mL HLMs; from tissue; host or cells: human liver microsomes
CYP3A4, sequence (P08684 whole entry): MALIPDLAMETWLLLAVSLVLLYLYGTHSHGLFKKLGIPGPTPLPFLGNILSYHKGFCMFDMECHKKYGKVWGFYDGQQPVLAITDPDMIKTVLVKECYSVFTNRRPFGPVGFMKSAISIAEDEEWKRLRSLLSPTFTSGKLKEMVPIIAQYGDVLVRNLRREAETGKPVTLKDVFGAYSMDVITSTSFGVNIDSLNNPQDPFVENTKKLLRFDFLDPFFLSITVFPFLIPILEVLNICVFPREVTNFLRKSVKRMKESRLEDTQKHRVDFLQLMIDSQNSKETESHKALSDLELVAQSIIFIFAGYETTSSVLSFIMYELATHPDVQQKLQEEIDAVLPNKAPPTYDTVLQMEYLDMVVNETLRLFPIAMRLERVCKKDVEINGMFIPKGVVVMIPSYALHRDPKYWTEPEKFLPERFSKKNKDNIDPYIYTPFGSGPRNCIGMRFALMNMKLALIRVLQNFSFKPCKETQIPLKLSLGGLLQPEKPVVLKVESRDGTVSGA
Procedure: as §1, with “CYP2D6/CYP2D.” for “CYP2D6/CYP2D. After 5.0 min of preincubation in the shaking water bath, the reaction was started with the addition of 1.0 mM NADPH. The incubated temperature at 37°C for 30 min. After the incubation, the enzyme reaction was stopped by cooling at −80°C, and 200 μL of acetonitrile and 20 μL of internal standard diazepam (200 ng/mL) were added for protein precipitation.”
as §3, §4

CYP2D = assay: IC50-shift experiment, CYP2D in RLMs; settings: rat, rat liver microsomes, probe dextromethorphan; for IC50 at 30 min: dextromethorphan 20 μM
Procedure: as §1, §2, §3, §4

CYP2B6 = target: T1, CYP2B6 (Homo sapiens, UniProt P20813); assay: IC50-shift experiment, CYP2B6 in HLMs; design: 0.20 mg/mL HLMs or 0.20 mg/mL RLMs; from tissue; host or cells: human liver microsomes; settings: for IC50: bupropion 40 μM
T1 sequence (P20813 1-491): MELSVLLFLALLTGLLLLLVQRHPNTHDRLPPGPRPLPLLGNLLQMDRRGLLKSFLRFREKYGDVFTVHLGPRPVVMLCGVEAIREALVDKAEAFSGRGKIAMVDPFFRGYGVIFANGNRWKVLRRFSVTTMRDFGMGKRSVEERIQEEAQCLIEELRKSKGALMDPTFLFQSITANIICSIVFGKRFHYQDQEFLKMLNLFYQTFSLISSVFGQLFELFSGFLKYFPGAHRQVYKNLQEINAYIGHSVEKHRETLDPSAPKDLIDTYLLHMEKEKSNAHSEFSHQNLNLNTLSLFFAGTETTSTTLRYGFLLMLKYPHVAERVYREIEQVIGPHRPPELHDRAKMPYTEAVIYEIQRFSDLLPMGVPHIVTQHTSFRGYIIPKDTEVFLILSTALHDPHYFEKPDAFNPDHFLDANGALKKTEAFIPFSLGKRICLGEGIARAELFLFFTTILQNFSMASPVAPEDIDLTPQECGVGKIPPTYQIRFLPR
Procedure: as §1, §2, §3, §4

[1] = 30 min preincubation with 1.0 mM NADPH
[2] = 30 min preincubation without NADPH

CYP2D6, sequence (P10635 whole entry): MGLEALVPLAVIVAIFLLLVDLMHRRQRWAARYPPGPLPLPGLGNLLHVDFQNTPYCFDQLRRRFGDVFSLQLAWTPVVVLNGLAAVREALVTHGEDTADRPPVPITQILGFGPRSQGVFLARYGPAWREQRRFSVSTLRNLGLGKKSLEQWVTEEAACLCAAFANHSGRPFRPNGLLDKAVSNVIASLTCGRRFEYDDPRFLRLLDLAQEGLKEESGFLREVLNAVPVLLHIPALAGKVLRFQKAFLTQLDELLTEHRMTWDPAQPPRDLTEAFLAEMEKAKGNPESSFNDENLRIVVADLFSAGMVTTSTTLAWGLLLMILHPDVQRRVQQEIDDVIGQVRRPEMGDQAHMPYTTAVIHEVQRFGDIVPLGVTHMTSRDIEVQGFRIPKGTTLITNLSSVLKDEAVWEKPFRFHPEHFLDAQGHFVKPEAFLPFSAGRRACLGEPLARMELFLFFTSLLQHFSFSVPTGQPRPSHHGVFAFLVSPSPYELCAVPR

- IC50 (CYP2D6; [1]): 18.4 µM
- IC50 (CYP2D6; [2]): 19.4 µM
- IC50 (CYP3A4; HLMs 0.20 mg/mL, midazolam at Km, 37°C, 30 min, read-out: IC50): 9.31 µM
- IC50 (CYP3A4; inhibitory effect (strength judged by IC50), HLMs): 1 to 10 µM
- IC50 at 30 min (CYP2D; [1]): 7.38 µM
- IC50 at 30 min (CYP2D; [2]): 3.35 µM
- IC50 (CYP2B6; [1]): 6.69 µM
- IC50 (CYP2B6; [2]): 5.38 µM
Compound: Cc1ccc(Sc2ccccc2N2CCNCC2)c(C)c1 [vortioxetine]
- IC50 shift at 30 min (CYP2D6; human, human liver microsomes, probe dextromethorphan (10 μM), ratio IC50 (−) NADPH to IC50 (+) NADPH, read-out: IC50 fold shift): 1.06
- IC50 shift at 30 min (CYP2D; ratio IC50 (−) NADPH to IC50 (+) NADPH, read-out: IC50 fold shift): 0.45
- IC50 shift at 30 min (CYP2B6; human, human liver microsomes, probe bupropion (40 μM), ratio IC50 (−) NADPH to IC50 (+) NADPH, read-out: IC50 fold shift): 0.8

Source: paper PMC10544575, “Inhibitory mechanism of vortioxetine on CYP450 enzymes in human and rat liver microsomes” (Frontiers in Pharmacology, 2023)
